Consider 21 molecules from patent US10654884B2 (Vitae Pharmaceuticals, Inc., priority 2014, dated 2020).

Assay [1] addresses T1, human CD73 (Homo sapiens, UniProt P21589).
T1 construct: purchased R&D Systems 5795-EN-010
T1 sequence (P21589 27-549): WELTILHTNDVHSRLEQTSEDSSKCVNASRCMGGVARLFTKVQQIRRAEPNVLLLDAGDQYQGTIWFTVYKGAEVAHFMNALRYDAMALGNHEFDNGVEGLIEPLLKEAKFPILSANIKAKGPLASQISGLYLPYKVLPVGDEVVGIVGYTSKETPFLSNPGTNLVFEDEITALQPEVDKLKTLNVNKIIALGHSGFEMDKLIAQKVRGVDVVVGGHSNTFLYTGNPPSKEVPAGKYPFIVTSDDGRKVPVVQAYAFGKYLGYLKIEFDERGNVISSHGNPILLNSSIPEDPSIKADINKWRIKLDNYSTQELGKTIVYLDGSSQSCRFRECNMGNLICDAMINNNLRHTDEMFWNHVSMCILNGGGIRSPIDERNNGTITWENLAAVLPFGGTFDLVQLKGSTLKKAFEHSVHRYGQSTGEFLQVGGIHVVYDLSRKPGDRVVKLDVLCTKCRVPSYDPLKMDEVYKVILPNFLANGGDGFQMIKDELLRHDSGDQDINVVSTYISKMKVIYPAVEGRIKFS
Nature of the assay: Inhibition of 5′-Nucleotidase Activity of CD73 (Assay 1). The settings on record: human CD73 4 ng/ml, 50 μM CMP, 20 min at RT, malachite green readout; read-out: Assay 1: IC50, inhibition of 5′-nucleotidase activity of CD73. The assay is classed as biochemical. The method in brief: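 Human CD73 (4 ng/ml final) was incubated with 50 μM CMP in 25 mM Tris-HCl pH 7.4, 0.005% Brij-35 for 20 min at RT. Reactions were stopped with malachite green reagent and absorbance was read at 620 nm. IC50 came from a 4-parameter logistic fit.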

Assay [2] has as its target T2, CD73 on U138 neuroglioma cells (Homo sapiens, UniProt P21589).
T2 construct: U138 neuroglioma cells, which express CD73 on their surface; endogenous in cells; host or cells: U138 neuroglioma cells (ATCC)
T2 sequence (P21589 27-549): T1 sequence (P21589 27-549)
As to the kind of experiment: Inhibition of Ecto-5′-Nucleotidase Activity in U138 Neuroglioma Cells (Assay 2). Type of assay: cell-based. To be noted: 50 μM CMP, 2 hr at 37° C., malachite green readout, read-out: Assay 2: IC50, inhibition of ecto-5′-nucleotidase activity in U138 neuroglioma cells. The method in brief:
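Whole-cell CD73 activity in U138 human neuroglioma cells seeded the day before, washed free of phosphate, then given test compound dilutions with 50 μM CMP in HEPES-buffered saline, pH 7.4, DMSO ≤0.1%. Incubated 2 hr at 37° C; released inorganic phosphate in supernatant measured by malachite green; IC50 by nonlinear regression.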

pIC50: −log10 of the molar value.

In general, pIC50 refers to the IC50 on a negative log10 scale, so that one unit is a factor of ten. In the case of `Nc1nc(Cl)nc2c1ncn2[C@@H]1O[C@H](COC(Cc2ccc(Cl)cc2)(C(=O)O)C(=O)O)[C@@H](O)[C@H]1O` [Example 47, 2-(((2R,3S,4R,5R)-5-(6-amino-2-chloro-9H-purin-9-yl)-3,4-dihydroxytetrahydrofuran-2-yl)methoxy)-2-(4-chlorobenzyl)malonic acid], the negative-log IC50 (pIC50) in assay [1] and in assay [2] was more than 7.00 each time.
Take `N#Cc1ccc(CC(OC[C@H]2O[C@@H](n3cnc4c(N)nc(Cl)nc43)[C@H](O)[C@@H]2O)(C(=O)O)C(=O)O)cc1` [Example 48, 2-(((2R,3S,4R,5R)-5-(6-amino-2-chloro-9H-purin-9-yl)-3,4-dihydroxytetrahydrofuran-2-yl)methoxy)-2-(4-cyanobenzyl)malonic acid]: the pIC50 in assay [1] and in assay [2] was more than 7.00 in each case.
As to `Nc1nc(F)nc2c1ncn2[C@@H]1O[C@H](CO[C@@H](C(=O)O)P(=O)(O)O)[C@@H](O)[C@H]1O` [Example 53, (R)-2-(((2R,3S,4R,5R)-5-(6-amino-2-fluoro-9H-purin-9-yl)-3,4-dihydroxytetrahydrofuran-2-yl)methoxy)-2-phosphonoacetic Acid], the values for the pIC50 in assay [1] and in assay [2] were more than 7.00 and 6.00 to 7.00, respectively.
For the molecule `Nc1nc(F)nc2c1ncn2[C@@H]1O[C@H](CO[C@H](C(=O)O)P(=O)(O)O)[C@@H](O)[C@H]1O` [Example 53a, (S)-2-(((2R,3S,4R,5R)-5-(6-amino-2-fluoro-9H-purin-9-yl)-3,4-dihydroxytetrahydrofuran-2-yl)methoxy)-2-phosphonoacetic acid], the negative logarithm of the IC50 (pIC50) in assay [1] and in assay [2] was less than 6.00 each time.
With `CC(C)(C)OC(=O)[C@H](OC[C@H]1O[C@@H](n2cnc3c(N)nc(C#N)nc32)[C@H](O)[C@@H]1O)P(=O)(O)O` [Example 54a, ((R)-1-(((2R,3S,4R,5R)-5-(6-amino-2-cyano-9H-purin-9-yl)-3,4-dihydroxytetrahydrofuran-2-yl)methoxy)-2-(tert-butoxy)-2-oxoethyl)phosphonic Acid], the pIC50 in assay [1] is 6.00 to 7.00; in assay [2], less than 6.00.
On the same counts, the results for `O=C(Nc1nc(I)nc2c1ncn2[C@@H]1O[C@H](COC(C(=O)O)P(=O)(O)O)[C@@H](O)[C@H]1O)c1ccccc1` (stereo partly drawn) [Example 58, 2-(((2R,3S,4R,5R)-5-(6-benzamido-2-iodo-9H-purin-9-yl)-3,4-dihydroxytetrahydrofuran-2-yl)methoxy)-2-phosphonoacetic acid] are more than 7.00 and 6.00 to 7.00.
Consider `Nc1nc(I)nc2c1ncn2[C@@H]1O[C@H](CO[C@H](C(=O)O)P(=O)(O)O)[C@@H](O)[C@H]1O` [Example 59, (S)-2-(((2R,3S,4R,5R)-5-(6-amino-2-iodo-9H-purin-9-yl)-3,4-dihydroxytetrahydrofuran-2-yl)methoxy)-2-phosphonoacetic Acid], for which the pIC50 is more than 7.00 in assay [1] and 6.00 to 7.00 in assay [2].
For the molecule `Nc1nc(I)nc2c1ncn2[C@@H]1O[C@H](CO[C@@H](C(=O)O)P(=O)(O)O)[C@@H](O)[C@H]1O` [Example 59a, (R)-2-(((2R,3S,4R,5R)-5-(6-amino-2-iodo-9H-purin-9-yl)-3,4-dihydroxytetrahydrofuran-2-yl)methoxy)-2-phosphonoacetic Acid], the figures for the negative-log IC50 (pIC50) in assay [1] and in assay [2] were more than 7.00 and 6.00 to 7.00, respectively.
For the molecule `O=C(O)C(OC[C@H]1O[C@@H](n2cnc3c(NO)nc(I)nc32)[C@H](O)[C@@H]1O)P(=O)(O)O` (stereo partly drawn) [Example 59b, 2-(((2R,3S,4R,5R)-3,4-dihydroxy-5-(6-(hydroxyamino)-2-iodo-9H-purin-9-yl)tetrahydrofuran-2-yl)methoxy)-2-phosphonoacetic acid], the negative-log IC50 (pIC50) in assay [1] was more than 7.00; in assay [2] it was 6.00 to 7.00.
Turning to `O=C(O)C(OC[C@H]1O[C@@H](n2cnc3c(Cl)nc(Cl)nc32)[C@H](O)[C@@H]1O)P(=O)(O)O` (stereo partly drawn) [Example 62, 2-(((2R,3S,4R,5R)-5-(2,6-dichloro-9H-purin-9-yl)-3,4-dihydroxytetrahydrofuran-2-yl)methoxy)-2-phosphonoacetic acid], the negative logarithm of the IC50 (pIC50) is more than 7.00 in assay [1] and 6.00 to 7.00 in assay [2].
The matching figures for `CCOc1nc(Cl)nc2c1ncn2[C@@H]1O[C@H](COC(C(=O)O)P(=O)(O)O)[C@@H](O)[C@H]1O` (stereo partly drawn) [Example 63, 2-(((2R,3S,4R,5R)-5-(2-chloro-6-ethoxy-9H-purin-9-yl)-3,4-dihydroxytetrahydrofuran-2-yl)methoxy)-2-phosphonoacetic acid]: more than 7.00 and 6.00 to 7.00.
Regarding `O=C(O)C(OC[C@H]1O[C@@H](n2cnc3c(Nc4ccccc4)ncnc32)[C@H](O)[C@@H]1O)P(=O)(O)O` (stereo partly drawn) [Example 65, 2-(((2R,3S,4R,5R)-3,4-dihydroxy-5-(6-(phenylamino)-9H-purin-9-yl)tetrahydrofuran-2-yl)methoxy)-2-phosphonoacetic acid], the pIC50 in assay [1] and in assay [2] was 6.00 to 7.00 each time.
Consider `O=C(O)C(OC[C@H]1O[C@@H](n2cnc3c(N4CCC(O)CC4)ncnc32)[C@H](O)[C@@H]1O)P(=O)(O)O` (stereo partly drawn) [Example 66, 2-(((2R,3S,4R,5R)-3,4-dihydroxy-5-(6-(4-hydroxypiperidin-1-yl)-9H-purin-9-yl)tetrahydrofuran-2-yl)methoxy)-2-phosphonoacetic acid], for which the pIC50 in assay [1] was 6.00 to 7.00; in assay [2], less than 6.00.
As for `CNc1ncnc2c1ncn2[C@@H]1O[C@H](COC(C(=O)O)P(=O)(O)O)[C@@H](O)[C@H]1O` (stereo partly drawn) [Example 67, 2-(((2R,3S,4R,5R)-3,4-dihydroxy-5-(6-(methylamino)-9H-purin-9-yl)tetrahydrofuran-2-yl)methoxy)-2-phosphonoacetic acid], the pIC50 is 6.00 to 7.00 in assay [1] and less than 6.00 in assay [2].
With `O=C(O)C(OC[C@H]1O[C@@H](n2cnc3c(N[C@@H]4CCOC4)nc(Cl)nc32)[C@H](O)[C@@H]1O)C(=O)O` [Example 68, 2-(((2R,3S,4R,5R)-5-(2-chloro-6-(((R)-tetrahydrofuran-3-yl)amino)-9H-purin-9-yl)-3,4-dihydroxytetrahydrofuran-2-yl)methoxy)malonic acid], the pIC50 was more than 7.00 in assay [1] and 6.00 to 7.00 in assay [2].
For `O=C(O)C(OC[C@H]1O[C@@H](n2cnc3c(N[C@@H]4CCOC4)nc(Cl)nc32)[C@H](O)[C@@H]1O)C(=O)O` [Example 69, (R)-2-(((2R,3S,4R,5R)-5-(2-chloro-6-(((R)-tetrahydrofuran-3-yl)amino)-9H-purin-9-yl)-3,4-dihydroxytetrahydrofuran-2-yl)methoxy)malonic Acid], the figures for the pIC50 in assay [1] and in assay [2] were 6.00 to 7.00 and less than 6.00, respectively.
Regarding `CCOC(=O)[C@H](OC[C@H]1C[C@@H](n2cnc3cccc(C#N)c3c2=O)[C@H](O)[C@@H]1O)P(=O)(O)O` [Example 73, ((R)-1-(((1R,2R,3S,4R)-4-(5-cyano-4-oxoquinazolin-3(4H)-yl)-2,3-dihydroxycyclopentyl)methoxy)-2-ethoxy-2-oxoethyl)phosphonic Acid], the pIC50 in assay [1] was more than 7.00; in assay [2], 6.00 to 7.00.
With `O=C(O)C(OC[C@H]1O[C@@H](n2cnc3c(N[C@H]4CCOC4)nc(Cl)nc32)[C@H](O)[C@@H]1O)C(=O)O` [Example 83, 2-(((2R,3S,4R,5R)-5-(2-chloro-6-(((S)-tetrahydrofuran-3-yl)amino)-9H-purin-9-yl)-3,4-dihydroxytetrahydrofuran-2-yl)methoxy)malonic acid], the pIC50 is 6.00 to 7.00 in assay [1] and less than 6.00 in assay [2].
On to `Nc1nc(Cl)nc2c1ncn2[C@@H]1O[C@H](COC(Cc2c(F)cccc2F)(C(=O)O)C(=O)O)[C@@H](O)[C@H]1O` [Example 84, 2-(((2R,3S,4R,5R)-5-(6-amino-2-chloro-9H-purin-9-yl)-3,4-dihydroxytetrahydrofuran-2-yl)methoxy)-2-(2,6-difluorobenzyl)malonic acid], for which the negative-log IC50 (pIC50) in assay [1] and in assay [2] was more than 7.00 throughout.
In the case of `N#Cc1ccccc1CC(OC[C@H]1O[C@@H](n2cnc3c(N)nc(Cl)nc32)[C@H](O)[C@@H]1O)(C(=O)O)C(=O)O` [Example 85], the pIC50 in assay [1] and in assay [2] was more than 7.00 in each case.
`CS(=O)(=O)c1ccccc1CC(OC[C@H]1O[C@@H](n2cnc3c(N)nc(Cl)nc32)[C@H](O)[C@@H]1O)(C(=O)O)C(=O)O` [Example 86, 2-(((2R,3S,4R,5R)-5-(6-amino-2-chloro-9H-purin-9-yl)-3,4-dihydroxytetrahydrofuran-2-yl)methoxy)-2-(2-(methylsulfonyl)benzyl)malonic acid]: the pIC50 in assay [1] is more than 7.00; in assay [2], 6.00 to 7.00.
